Experimental data taken from patent US20180085385A1, “GLUCOSE-SENSITIVE CELL PROTECTING AGENT” (THE UNIVERSITY OF TOKYO, priority 2015, published 2018).

Experiments:
human iPS cells = test: Orexin cell induction from human iPS cells (SDIA differentiation culture, Hcrt RT-PCR); assay type: cell-based; conditions: for orexin cell induction activity (Hcrt expression): 8, 40, 200 nM, 1 μM and 5 μM instead of 1.0 mM ManNAc, compared to ManNAc
Procedure: Human iPS cell line 201B7 (HSP0001) was obtained from BioResource Center, RIKEN, Japan via National BioResource project (MEXT, Japan). Human iPS cells were maintained on a feeder layer of mitomycin C-treated STO/Neo resistant/LIF(SNL) feeder cells in primates ES medium (ReproCELL) supplemented with 5 ng/mL recombinant human bFGF (Wako). For differentiation induction into nerve by SDIA and BMP4 system, human iPS cells were cocultured with PA6 for 20 days. 5 nM BMP4 was supplemented from day 7. From the start of the differentiation culture (day 0), ManNAc was added to a neuronal differentiation medium to 1.0 mM, and the medium was exchanged on days 7, 10 and 14 of differentiation culture. In addition, 5 nM recombinant human BMP4 (Wako) was added from day 7 of the differentiation culture. On day 14 of the differentiation culture, EX-527 (SIGMA-ALDRICH) was added to neuronal differentiation medium to 50 nM, or BADGP (SIGMA-ALDRICH) was added to neuronal differentiation medium to 5 mM, and the cells were harvested on day 20 of the differentiation culture and subjected to RT-PCR.
(§1) Total RNA was extracted from the harvested cells by using RNeasy plus Mini Kit (QIAGEN). Then, using SuperScript III First Strand Synthesis System (Invitrogen), a reverse transcription reaction was performed in a reaction mixture containing total RNA (1 μg) and Oligo (dT), whereby cDNA was synthesized.
(§2) PCR reaction was performed on a 10 μl scale, 1 U LA-Tag DNA Polymerase (Takara) was added to 0.5 μl of cDNA, 5 μl of 2×GC Buffer I, 200 μM of each dNTP, 1.5 mM MgCl2 and final concentration 0.2 μM of each primer and, after heat denaturation at 95° C. for 3 min, and PCR was performed under the conditions of (95° C. 30 sec, 55° C. 30 sec, 72° C. 30 sec)×35 cycles (20 cycles for Actb). The primers used are shown below.
(§3) Each PCR product was electrophoresed on 2% agarose gel and stained with ethidium bromide, and the bands were observed by UV irradiation.
According to the method described in Reference Example 1 except that ManNAc, ManNAcF, 5S-ManNAc, 5S-ManNAcF, ManNCOOMe or ManNCOOEt (8, 40, 200 nM, 1 μM and 5 μM, respectively) was added instead of 1.0 mM ManNAc, orexin cells were induced from human iPS cells. The expression of orexin gene (Hcrt) in the cells induced under the various conditions was examined.

[1] = system: orexin nerve cells differentiated from human iPS cells; test: Protection or recovery of orexin nerve cells under high glucose by various ManNAc derivatives (Example 3); assay type: cell-based; conditions: for recovery activity of orexin production (Hcrt expression intensity): 12-day course: high glucose 25 mM from day 0, compound 1 μM added from +day 8, harvested +day 12
Procedure: as §1, §2, §3
The orexin nerve cells were cultured in a neuronal differentiation medium (G-MEM+10% KSR (KnockOut Serum Replacement, Invitrogen)) for 8 days or 12 days, and maintained in vitro. In this case, the glucose concentration of the medium was set to a high glucose concentration (25 mM), ManNAc or various ManNAc derivatives (each 1 μM) were added, and the cells were cultured. In the 8-day culture course, glucose and ManNAc or various ManNAc derivatives were added to the medium from the start of the culture (+day 0), the cells were harvested on +day 8 the orexin expression was analyzed. As a control, orexin nerve cells cultured at low glucose concentration (5 mM) were prepared. In the 12-day culture course, high glucose was added from the start of the culture (+day 0), ManNAc or various ManNAc derivatives were added to the medium from +day 8 from the start of the culture, the cells were harvested on +day 12, and the orexin expression was analyzed. As a control, orexin nerve cells cultured at low glucose concentration (5 mM) from +day 8 from the start of the culture were prepared. According to the expression analysis by the RT-PCR method described in Reference Example 1, the expression of Hcrt gene was examined. Based on the expression of Hcrt gene in orexin nerve cells at the start of the culture, expression of Hcrt gene in orexin nerve cells after culture with the addition of ManNAc or various ManNAc derivatives under high glucose conditions is shown by expression intensity (FIG. 3).

[2] = system: orexin nerve cells differentiated from human iPS cells; test: Disappearance of orexin nerve cells under high glucose concentration and protection or recovery from disappearance (Example 1); assay type: cell-based; conditions: for recovery of orexin nerve cells (expression of orexin): culture under high glucose concentration extended for 2 or 4 more days, compound then added to the medium; for disappearance of the orexin nerve cells (orexin (Hcrt) expression): high glucose concentration (25 mM), 8 days, addition concentration 10 μM ManNAc, 1 μM ManNAcF
Procedure: as §1, §2, §3
The orexin nerve cells were cultured in a neuronal differentiation medium (G-MEM+10% KSR (Knockout Serum Replacement, Invitrogen)) for 8 days, and maintained in vitro. In this case, the cells were divided based on the glucose concentration in the medium into two groups having low glucose concentration (5 mM) and high glucose concentration (25 mM) and cultured.

[3] = system: Gne/Mnk M712T homozygous mutant mouse; conditions: mutant mice otherwise did not survive beyond age 3 after birth; cited from earlier work
[4] = system: renal proximal tubule epithelial cells derived from type II diabetes patients (D-RPTEC); test: Histone O-GlcNAc modification level in D-RPTEC by immunofluorescence staining; assay type: cell-based, human; conditions: D-RPTEC cultured 96 hr under high glucose (25 mM glucose)
Procedure: Normal human renal proximal tubule epithelial cells and RPTEC derived from type II diabetes patients (D-RPTEC) were purchased from Lonza. RPTEC and D-RPTEC maintained with REGM™ Renal Epithelial Cell proliferation Medium Bullet Kit (Lonza) were each seeded in a 4-well dish at 1×10^4 cells per 1 well, and cultured for 4 days in a control medium or high glucose medium (adjusted to final concentration of 25 mM with 2.5 M glucose solution).
The cultured cells were fixed with 4% para-formaldehyde for 20 min and, after a permeabilization treatment with 0.2% TritonX-100-PBS solution, treated overnight with a blocking solution [PBS(−) containing 5% bovine serum-derived albumin (BSA), 0.1% Tween20, 0.2% TritonX-100] at 4° C. Then, the cells were reacted with anti-histone O-GlcNAc antibody (20B2) diluted with 5% BSA-PBS(−)-0.1% Tween20 at 4° C. overnight, reacted with secondary antibody diluted with PBS(−) at room temperature for 1 hr. The nucleus was stained with 1 μg/ml DAPI (Dojindo) at room temperature for 20 min, mounted in mountant (VECTASHIELD), and slides were prepared. Observation was performed with an integrated confocal laser microscope (FV10i, OLYMPUS). After obtaining images, the number of O-GlcNAc signals in the nucleus was measured by image analysis software Cell Profiler (www.cellprofiler.org), and statistical processing was performed by Wilcoxon rank-sum test. […]

[5] = system: orexin nerve cells in the brain of diabetic model mice (db/db mouse); test: Protection of nerve cells from disappearance at individual level, high fat feed db/db mouse, in situ hybridization; assay type: in vivo; conditions: high fat feed 6 to 8 weeks of age, 5 μg/μl ManNAc containing drinking water
Procedure: To confirm effectiveness of ManNAc for nerve cell protection at an individual level, the number of orexin nerve cells and orexin expression were examined using genetically obese mouse (db/db mouse, hetero mouse as control, all male) (each group n=6). The breeding conditions of each group (6-8 weeks old) are as described below. […]
high fat feed+drinking water group high fat feed+5 μg/μl ManNAc containing drinking water group normal food+drinking water group normal food+5 μg/μl ManNAc containing drinking water group
Three individual mice from each group mentioned above were subjected to Nembutal anesthesia, and perfusion was fixed with formamide fixative (Genostaff). The brain was taken out, embedded in paraffin, and sections with 6 μm thickness in the sagittal direction were prepared. […]
was cloned into […] vector (Promega), and using DIG RNA Labeling Mix (Roche) and the plasmid as a template, digoxigenin-labeled RNA probe was prepared. […] The cells expressing orexin gene were counted, and the mean of 3 individuals and standard error were determined.

Compound | orexin cell induction activity (Hcrt expression) (human iPS cells) | recovery activity of orexin production (Hcrt expression intensity) [1] | recovery of orexin nerve cells (expression of orexin) [2] | further results
COC(=O)NC1C(O)OC(CO)[C@@H](O)C1O (stereo partly shown) [ManNCOOMe] | higher orexin cell induction activity as compared to ManNAc | low activity | – | maintenance of orexin production (Hcrt expression intensity) ([1]; 8-day course: high glucose 25 mM and compound 1 μM from +day 0, harvested +day 8): orexin production was maintained except for ManNCOOMe
CC(=O)N[C@H]1[C@@H](OCc2ccccc2)O[C@H](CO)[C@H](O)[C@@H]1O [BADGP, reference compound] | – | – | completely ineffective | –
O=C(CF)NC1C(O)OC(CO)[C@@H](O)[C@@H]1O (stereo partly shown) [ManNAcF] | higher orexin cell induction activity as compared to ManNAc | highest activity | expression of orexin was observed | disappearance of the orexin nerve cells (orexin (Hcrt) expression) [2]: disappearance of the orexin nerve cells could be avoided
CCOC(=O)NC1C(O)OC(CO)[C@@H](O)C1O (stereo partly shown) [ManNCOOEt] | higher orexin cell induction activity as compared to ManNAc | low activity | – | –
CC(=O)N[C@@H]1C(O)O[C@H](CO)[C@@H](O)[C@@H]1O (stereo partly drawn) [ManNAc, N-acetyl-D-mannosamine] | – | higher | expression of orexin was observed | expression of orexin gene (Hcrt) (human iPS cells; 1.0 mM ManNAc from day 0, EX-527 50 nM or BADGP 5 mM from day 14, harvested day 20): expression of Hcrt was observed; disappearance of the orexin nerve cells (orexin (Hcrt) expression) [2]: disappearance of the orexin nerve cells could be avoided; survival of Gne/Mnk M712T homozygous mutant mice [3]: rescued the mice; histone O-GlcNAc modification level [4]: increase in the histone O-GlcNAc modification level was observed; decrease in the number of orexin nerve cells and the orexin gene expression [5]: suppressed
CC(=O)NC1C(O)SC(CO)[C@@H](O)[C@@H]1O (stereo partly drawn) [5S-ManNAc] | – | low activity | – | –
NC(=O)C1CCCc2c1[nH]c1ccc(Cl)cc21 (stereo not shown) [EX-527, reference compound] | – | – | completely ineffective | –
